Earlier results in patent US20230287067A1, “HUMAN I[…] OF HEMO AND HHLA2 HUMAN ENDOGENOUS RETROVIRUSES (HERVS)” (priority 2020, published 2023).

Tests used:
HLA-A24 = settings: known property of control peptide
HLA-A2 = settings: known property of control peptide

SYLIRALTL [peptide derived from influenza]
binding to HLA-A24 (HLA-A24): binds strongly | binding to HLA-A2 (HLA-A2): not to HLA-A2

WLLPGTSTV [agonist peptide derived from the tumor-associated antigen Brachyury]
binding to HLA-A2 (HLA-A2): bind strongly
